Entries after “also recorded” stand apart in the source; their conditions may differ.
How the values were obtained:
Format in all cases: in vivo, human
[1] = system: special operations veterans; assay: WHODAS 2.0 disability assessment, Example 1 study; conditions: for WHODAS 2.0 Self Care subscale, mean: baseline 5.2% ± 9.2%; for WHODAS 2.0 Mobility subscale, mean: baseline 14.7% ± 15.7%
Experimental: (§1) With subjects in the fasting state, an intravenous infusion of 1 gram of magnesium sulfate was administered 1-2 hours prior to treatment. […] Medical staff (MD, RN, or EMT) were onsite at a ratio of at least 1 staff per 2 patients throughout treatment for monitoring and management, but no specific coaching or psychological support was provided during treatment.
(§2) Post treatment, each subject was assessed four days after treatment, one month after treatment, and, if willing, one year after treatment. The post-treatment assessments conducted at four days and at one month after treatment included neuropsychological testing, measures of PTSD, depression, anxiety, mystical experiences, functional imaging and EEG. Post-treatment assessments conducted at one year after treatment included PTSD, depression, and anxiety measures.
World Health Organization Disability Assessment Scale 2.0 (WHODAS 2.0) was used as a measure of function. WHODAS was used to assess the impact of health conditions across six life domains (cognition, mobility, self-care, interpersonal, life activities, and community participation) and it is sensitive to change over time (Gold, L. H., J. Am. Acad. Psychiatry Law 42, 9 (2014). Each item in the assessment is rated on a scale ranging from no problems to extreme problems (Üstün, T. B. et al., Measuring health and disability: Manual for WHO disability assessment schedule WHODAS 2.0. (World Health Organization, 2010)). To capture inter-individual variability in disability the WHODAS complex scoring method was used. Raw scores were converted to a metric ranging from 0 (no disability) to 100 (full disability), by calculating the ratio of the participant's score relative to the maximum possible score in each domain as well as to the total score (Id.). A score of 20%-39% was considered mild, 40%-59% was moderate, 60%-79% was moderate-severe and 80%-100% was severe. Scores from baseline were compared to scores from one-month post treatment.

[2] = system: special operations veterans; assay: CAPS-5 clinician-administered PTSD scale, Example 1 study; conditions: for CAPS-5 score, mean: p(FDR) <0.001
Experimental: as §1, §2
(§3) Clinician administered scales included CAPS-5 (Clinician-administered PTSD Scale for DSM-5), which is a gold standard assessment of PTSD symptom severity; MADRS (Montgomery-Asberg Depression Rating Scale), a measure for depressive symptom severity; and Hamilton-Anxiety Rating Scale (HAM-A) (Shear, M. K. et al., Depress. Anxiety 13, 166-178 (2001)) a measure for anxiety symptom severity; SCID-5 (Structured Clinical Interview for DSM-5) Overview for a historical and environmental context of symptom presentation; MINI DSM-5 (Mini International Neuropsychiatric Interview from DSM-5) for a structured psychodiagnostics assessment; BAT-L (Boston Assessment of TBI—Lifetime) for a lifetime history of TBI and blast exposure; and Ohio State University TBI Identification Method (Short Form) for a lifetime history of TBI. MADRS testing provides an indication of depressive symptoms, CAPS-5 provides an indication of PTSD and SIGH-A provides an indication of anxiety. Collectively these overlap to provide indication of mood, concentration, sleep and tension.
For the CAPS-5, the test version with a […] structured interview of PTSD symptoms over the past week was used, using a 0 (“Absent”) to 4 (“Extreme/Incapacitating”) scale, with possible total scores ranging from 0 to 80. The score range 23 to 34 is considered moderate PTSD while a higher score represents severe PTSD (Weathers, F. W. et al., Psychol. Assess. 30, 383-395 (2018)).

[3] = system: special operations veterans; assay: MADRS depression rating scale, Example 1 study; conditions: for MADRS score, mean: p(FDR) <0.001
Experimental: as §1, §2, §3
The MADRS is a clinician—administered 10-item scale assessing the severity of depression symptoms. Items are rated on a scale of 0 (no abnormality) to 6 (severe) (Montgomery, S. A. et al., Br. J. Psychiatry J. Ment. Sci. 134, 382-389 (1979)). A total score of 0-6 indicates no depression, 7-19 mild depression, 20-34 moderate depression, 35-59 severe depression, […] (Miller, M. J., J. Affect. Disord. 77, 255-260 (2003)).

[4] = system: special operations veterans; assay: Safety monitoring (adverse events, QTc by ECG), Example 1 study
Experimental: as §1

[5] = system: special operations veterans; assay: Clinician rated psychiatric assessments (PTSD, depression, anxiety) overall, Example 1 study; conditions: following treatment; sustained at one-month follow-up
Experimental: The safety and efficacy of ibogaine treatment in combination with a cardioprotective agent was evaluated in subjects with a history of TBI. At baseline, study participants were experiencing clinically significant levels of disability, PTSD, depression, and anxiety. […] Indeed, disability measures continued to improve, and psychiatric symptom remission and response rates one-month post-treatment remained high.
as §3, with “Collectively these overlap to provide indication of mood, concentration, sleep and tension.” left out

[6] = 1-mo. post, SD 17%, only participants with mild TBI

How did the “WHODAS 2.0 Mobility subscale, D” value ([1]; Baseline vs One-Month) turn out when CCC1CC2CC3c4[nH]c5ccc(OC)cc5c4CCN(C2)C13 (stereo not shown) [ibogaine, Ibogaine] was run?
Its value is 0.83.

And the “WHODAS 2.0 Self Care subscale, D” value ([1]; Baseline vs One-Month)?
Its value is 0.51.

What about the “WHODAS 2.0 Cognition subscale, D” value ([1]; Baseline vs Post-Treatment) of the same compound?
The value was 0.96.

What about the “WHODAS 2.0 Community Participation subscale, D” value ([1]; Baseline vs Post-Treatment) of the same compound?
The value was 0.53.

What about the “WHODAS 2.0 Interpersonal subscale, D” value ([1]; Baseline vs Post-Treatment) of the same compound?
Its value is 0.60.

What about the “WHODAS 2.0 Life Activities subscale, D” value ([1]; Baseline vs Post-Treatment) of the same compound?
The value was 0.48.

What about the “WHODAS 2.0 Mobility subscale, D” value ([1]; Baseline vs Post-Treatment) of the same compound?
The value was 0.53.

And the “WHODAS 2.0 Self Care subscale, D” value ([1]; Baseline vs Post-Treatment)?
Its value is 0.37.

What about the “WHODAS 2.0 Self Care subscale, mean” value ([1]; One-Month, SD 2.9%, p(FDR) 0.009) of the same compound?
The value was 1.0% ±.

What about the “WHODAS 2.0 Mobility subscale, mean” value ([1]; One-Month, SD 3.3%, p(FDR) <0.001) of the same compound?
The value was 1.3% ±.

What about the “WHODAS 2.0 Cognition subscale, mean” value ([1]; One-Month, SD 7.9%, baseline 36.1% ± 14.6%, p(FDR) <0.001) of the same compound?
Its value is 5.0% ±.

What about the “WHODAS 2.0 Interpersonal subscale, mean” value ([1]; One-Month, SD 9.5%, baseline 32.3% ± 20.4, p(FDR) <0.001) of the same compound?
Its value is 4.8% ±.

And the “WHODAS 2.0 Community Participation subscale, mean” value ([1]; One-Month, SD 13.1%, baseline 35.6% ± 21.1%, p(FDR) <0.001)?
Its value is 5.9% ±.

What about the “WHODAS 2.0 Life Activities subscale, mean” value ([1]; One-Month, SD 16.2%, baseline 41.1% ± 24.8%, p(FDR) <0.001) of the same compound?
The value was 9.1% ±.

What about the “WHODAS 2.0 Self Care subscale, mean” value ([1]; Post-Treatment, SD 4.7%, p(FDR) 0.028) of the same compound?
Its value is 1.9% ±.

What about the “WHODAS 2.0 Mobility subscale, mean” value ([1]; Post-Treatment, SD 13.5%, p(FDR) 0.001) of the same compound?
The value was 7.2% ±.

What about the Functioning ([1]; immediately and one-month post-treatment) of the same compound?
Its Functioning is “clinically and statistically significant improvements in functioning”.

What about the “CAPS-5 score, mean” value ([2]; 1-mo. post, SD 8.1, baseline 31.7 ± 13.0, N 28, only participants with mild TBI) of the same compound?
Its value is 4.8.

What about the “CAPS-5 score, mean” value ([2]; 1-mo. post, SD 8.7, baseline 35.7 ± 11.0, N 23, only participants meeting diagnostic criteria per MINI at baseline) of the same compound?
The value was 6.0.

And the “CAPS-5 % Reduction vs Baseline, mean” value [2, 6]?
The value was 88% ±.

And the “CAPS-5 % Reduction vs Baseline, mean” value ([2]; 1-mo. post, SD 19%, only participants meeting diagnostic criteria per MINI)?
Its value is 86% ±.

And the “CAPS-5 score, mean” value ([2]; 1-wk post, SD 5.2, baseline 35.7 ± 11.0, N 23, only participants meeting diagnostic criteria per MINI at baseline)?
Its value is 4.4.

What about the “CAPS-5 score, mean” value ([2]; 1-wk. post, SD 4.5, baseline 31.7 ± 13.0, N 28, only participants with mild TBI) of the same compound?
The value was 3.6.

And the “CAPS-5 % Reduction vs Baseline, mean” value ([2]; 1-wk. post, SD 14%, only participants with mild TBI)?
Its value is 89% ±.

And the “CAPS-5 % Reduction vs Baseline, mean” value ([2]; 1-wk. post, SD 17%, only participants meeting diagnostic criteria per MINI)?
Its value is 87% ±.

What about the “MADRS score, mean” value ([3]; 1-mo. post, SD 5.9, baseline 25.2 ± 8.7, N 28, only participants with mild TBI) of the same compound?
Its value is 3.6.

And the “MADRS score, mean” value ([3]; 1-mo. post, SD 7.7, baseline 31.3 ± 6.5, N 15, only participants meeting diagnostic criteria per MINI at baseline)?
Its value is 6.4.

What about the “MADRS % Reduction vs Baseline, mean” value [3, 6] of the same compound?
Its value is 87% ±.

What about the “MADRS % Reduction vs Baseline, mean” value ([3]; 1-mo. post, SD 21%, only participants meeting diagnostic criteria per MINI) of the same compound?
The value was 81% ±.

And the “MADRS score, mean” value ([3]; 1-wk post, SD 3.6, baseline 31.3 ± 6.5, N 15, only participants meeting diagnostic criteria per MINI at baseline)?
Its value is 3.6.

What about the “MADRS score, mean” value ([3]; 1-wk. post, SD 3.2, baseline 25.2 ± 8.7, N 28, only participants with mild TBI) of the same compound?
Its value is 2.7.

And the “MADRS % Reduction vs Baseline, mean” value ([3]; 1-wk. post, SD 11%, only participants meeting diagnostic criteria per MINI)?
Its value is 89% ±.

What about the “MADRS % Reduction vs Baseline, mean” value ([3]; 1-wk. post, SD 24%, only participants with mild TBI) of the same compound?
Its value is 87% ±.

What about the “MADRS, D” value ([3]; Baseline vs 1-mo. post, only participants with mild TBI) of the same compound?
The value was 2.70.

And the “Participants treated for insomnia” value ([4]; 1 participant, during oneirogenic effects)?
The value was 3%.

What about the “Participants treated for hypertension” value ([4]; 2 participants, during oneirogenic effects) of the same compound?
Its value is 7%.

What about the “Participants treated for anxiety” value ([4]; 3 participants, during oneirogenic effects) of the same compound?
The value was 10%.

And the “Participants treated for nausea” value ([4]; 7 participants, during oneirogenic effects)?
The value was 23%.

What about the “Participants treated for headache” value ([4]; 12 participants, during oneirogenic effects) of the same compound?
The value was 40%.

What about the “Transient cerebellar signs such as mild ataxia and intention tremor” value ([4]; 30 participants) of the same compound?
Its value is “All participants experienced transient cerebellar signs”.

And the “Unexpected or serious adverse events” value ([4]; 30 participants, 12.1±1.2 mg/kg oral ibogaine with IV magnesium sulfate, 1.2 mg/kg)?
The value was “no unexpected or serious treatment-emergent side effects; also recorded: no unexpected or serious adverse events”.

What about the QTc prolongation ([4]; continuous 5-lead ECG 12-16 hours after ibogaine) of the same compound?
The QTc prolongation was “no instances of a concerning prolongation of QTc”.

And the “Cohen's D on clinician rated psychiatric assessments” value [5]?
Its value is > 2.
